Experimental data published in patent publication US20230338378A1, “Methods of Administering Myosin Inhibitors” (MYOKARDIA, INC., priority 2022, published 2023).

Experiments:
[1] = tested on: organic anion transporting polypeptides (OATPs); assay: In vitro transporter inhibition; type: in vitro ADME; conditions: In Vitro Studies
HCM patients = assay: Meta-analysis of QTc across clinical studies in HCM patients; type: in vivo, human; conditions: therapeutic exposure range
From the text: The effect of coadministration of MAVACAMTEN with QT-prolonging drugs or in patients with potassium channel variants resulting in a long QT interval have not been characterized.

CYP2C19 = CYP2C19 (Homo sapiens, UniProt P33261); assay: Metabolism through CYP enzymes
Solubility = type: physicochemical
rat = assay: Rat in vivo micronucleus assay
Plasma protein binding = type: in vitro ADME
BCRP = BCRP (Homo sapiens, UniProt Q9UNQ0); assay: In vitro transporter inhibition; type: in vitro ADME; conditions: In Vitro Studies
[2] = tested on: adults with symptomatic NYHA class II and III obstructive HCM; assay: EXPLORER-HCM Phase 3, double-blind, randomized, placebo-controlled trial; type: in vivo, human
Method: The safety of MAVACAMTEN was evaluated in EXPLORER-HCM, a Phase 3, double-blind, randomized, placebo-controlled trial. Of the 251 adults with obstructive HCM, 123 patients were treated with MAVACAMTEN 2.5-15 mg daily and 128 were treated with placebo.
The efficacy of MAVACAMTEN was evaluated in EXPLORER-HCM (NCT-03470545) a Phase 3, double-blind, randomized, placebo-controlled, multicenter, international, parallel-group trial in 251 adults with symptomatic NYHA class II and III obstructive HCM, LVEF≥55%, and Valsalva LVOT peak gradient ≥50 mmHg at rest or with provocation.
Patients on dual therapy with beta blocker and calcium channel blocker treatment or monotherapy with disopyramide or ranolazine were excluded. Patients with a known infiltrative or storage disorder causing cardiac hypertrophy that mimicked obstructive HCM, such as Fabry disease, amyloidosis, or Noonan syndrome with left ventricular hypertrophy, were also excluded.
Patients were randomized in a 1:1 ratio to receive either a starting dose of 5 mg of MAVACAMTEN or placebo once daily for 30 weeks. Treatment assignment was stratified by baseline NYHA functional class, baseline use of beta blockers, and type of ergometer (treadmill or exercise bicycle).
All patients were initiated on MAVACAMTEN 5 mg (or matching placebo) once daily, and the dose was periodically adjusted to optimize patient response (decrease in LVOT gradient with Valsalva maneuver) and maintain LVEF≥50%. The dose was also informed by plasma concentrations of MAVACAMTEN.
The primary composite functional endpoint, assessed at 30 weeks, was defined as the proportion of patients who achieved either improvement of […] (pVO2) by ≥1.5 mL/kg/min plus improvement in NYHA class by at least 1 or improvement of pVO2 by ≥3.0 mL/kg/min plus no worsening in NYHA class.
The treatment effects of MAVACAMTEN on LVOT obstruction, functional capacity, and health status were assessed by change from baseline through Week 30 in post-exercise LVOT peak gradient, change in pVO2, proportion of patients with improvement in NYHA class, Kansas City Cardiomyopathy Questionnaire-23 (KCCQ-23) Clinical Summary Score (CSS), and Hypertrophic Cardiomyopathy Symptom Questionnaire (HCMSQ) Shortness of Breath (SoB) domain score.
Missing data were not imputed to summarize the baseline and change from baseline to Week 30 values. Difference in mean change from baseline between treatment groups was estimated using a mixed model for repeated measures.

[3] = Pharmacokinetics in hepatic impairment; type: in vivo, human; conditions: mild (Child-Pugh A) or moderate (Child-Pugh B) hepatic impairment vs normal hepatic function
dogs = assay: Oral animal toxicology at multiple dose levels; type: in vivo
Method: (§1) The safety of mavacamten has been evaluated in rats and dogs at multiple dose levels (0.06 to 10 mg/kg/day) orally. […] Plasma exposures (AUC) at the NOAEL in rats and dogs were 0.1 and 0.3 times, respectively, human exposure (AUC) at the MRHD.

rats = assay: Oral animal toxicology at multiple dose levels; type: in vivo
Method: as §1

CYP3A4 = CYP3A4 (Homo sapiens, UniProt P08684); assay: Concomitant use with moderate CYP3A4 inhibitor verapamil; type: in vivo; design: Mavacamten is hepatically metabolized predominantly via CYP2C19 (74%), CYP3A4 (18%) and CYP2C9 (8%); from tissue; host or cells: liver of human subjects in vivo, or a Simcyp virtual population; conditions: mavacamten 25 mg with verapamil sustained release 240 mg; CYP2C19 IMs and NMs
[4] = tested on: adults with symptomatic NYHA class II and III obstructive HCM; conditions: phase 3 EXPLORER-HCM, oHCM patient population (Olivotto et al., 2020); cited from earlier work
CYP2C8 = CYP2C8 (Homo sapiens, UniProt P10632); assay: In vitro CYP inhibition; type: in vitro ADME; conditions: In Vitro Studies
[5] = Baseline to Week 30, vs Placebo

Chain of CYP3A4 (P08684 whole entry): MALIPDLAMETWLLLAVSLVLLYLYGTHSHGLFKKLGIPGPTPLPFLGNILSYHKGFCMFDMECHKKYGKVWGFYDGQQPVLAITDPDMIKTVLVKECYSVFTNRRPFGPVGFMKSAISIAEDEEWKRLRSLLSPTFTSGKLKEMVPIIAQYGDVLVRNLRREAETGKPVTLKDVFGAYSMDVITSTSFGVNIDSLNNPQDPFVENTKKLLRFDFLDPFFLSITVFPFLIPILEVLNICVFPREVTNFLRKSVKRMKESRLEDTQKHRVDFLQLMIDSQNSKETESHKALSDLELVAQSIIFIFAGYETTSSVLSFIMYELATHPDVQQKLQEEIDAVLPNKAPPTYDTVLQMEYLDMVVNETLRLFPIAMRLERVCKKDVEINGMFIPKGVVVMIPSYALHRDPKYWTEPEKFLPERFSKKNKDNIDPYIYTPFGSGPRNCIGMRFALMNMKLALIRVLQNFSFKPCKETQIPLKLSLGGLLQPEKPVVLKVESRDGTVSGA
Chain of CYP2C8 (P10632 whole entry): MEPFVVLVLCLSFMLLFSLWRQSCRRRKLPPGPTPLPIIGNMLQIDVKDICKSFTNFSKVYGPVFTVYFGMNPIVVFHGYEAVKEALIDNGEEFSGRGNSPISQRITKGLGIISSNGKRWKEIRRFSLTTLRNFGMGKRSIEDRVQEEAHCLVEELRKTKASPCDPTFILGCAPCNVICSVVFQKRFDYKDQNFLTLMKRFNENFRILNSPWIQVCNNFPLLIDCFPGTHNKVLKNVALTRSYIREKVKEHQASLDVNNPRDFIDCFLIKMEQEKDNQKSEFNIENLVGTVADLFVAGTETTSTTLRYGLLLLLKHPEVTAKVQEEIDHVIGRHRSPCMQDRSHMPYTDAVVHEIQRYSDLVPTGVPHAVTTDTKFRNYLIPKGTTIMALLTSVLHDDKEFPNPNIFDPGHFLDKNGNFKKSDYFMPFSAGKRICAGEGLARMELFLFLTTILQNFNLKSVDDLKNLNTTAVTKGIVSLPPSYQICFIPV
Chain of CYP2C19 (P33261 whole entry): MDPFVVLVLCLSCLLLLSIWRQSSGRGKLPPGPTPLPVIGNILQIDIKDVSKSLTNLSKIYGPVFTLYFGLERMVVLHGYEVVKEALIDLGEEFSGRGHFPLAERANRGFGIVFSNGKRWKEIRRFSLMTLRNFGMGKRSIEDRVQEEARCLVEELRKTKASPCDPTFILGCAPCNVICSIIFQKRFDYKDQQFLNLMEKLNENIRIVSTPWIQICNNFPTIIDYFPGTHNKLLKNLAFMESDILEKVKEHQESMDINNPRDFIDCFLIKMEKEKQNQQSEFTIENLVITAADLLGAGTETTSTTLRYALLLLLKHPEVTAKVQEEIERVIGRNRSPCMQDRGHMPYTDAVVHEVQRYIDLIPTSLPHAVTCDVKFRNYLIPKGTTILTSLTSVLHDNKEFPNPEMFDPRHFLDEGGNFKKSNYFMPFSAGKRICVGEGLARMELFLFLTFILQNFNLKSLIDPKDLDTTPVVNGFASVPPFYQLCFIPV
Chain of BCRP (Q9UNQ0 whole entry): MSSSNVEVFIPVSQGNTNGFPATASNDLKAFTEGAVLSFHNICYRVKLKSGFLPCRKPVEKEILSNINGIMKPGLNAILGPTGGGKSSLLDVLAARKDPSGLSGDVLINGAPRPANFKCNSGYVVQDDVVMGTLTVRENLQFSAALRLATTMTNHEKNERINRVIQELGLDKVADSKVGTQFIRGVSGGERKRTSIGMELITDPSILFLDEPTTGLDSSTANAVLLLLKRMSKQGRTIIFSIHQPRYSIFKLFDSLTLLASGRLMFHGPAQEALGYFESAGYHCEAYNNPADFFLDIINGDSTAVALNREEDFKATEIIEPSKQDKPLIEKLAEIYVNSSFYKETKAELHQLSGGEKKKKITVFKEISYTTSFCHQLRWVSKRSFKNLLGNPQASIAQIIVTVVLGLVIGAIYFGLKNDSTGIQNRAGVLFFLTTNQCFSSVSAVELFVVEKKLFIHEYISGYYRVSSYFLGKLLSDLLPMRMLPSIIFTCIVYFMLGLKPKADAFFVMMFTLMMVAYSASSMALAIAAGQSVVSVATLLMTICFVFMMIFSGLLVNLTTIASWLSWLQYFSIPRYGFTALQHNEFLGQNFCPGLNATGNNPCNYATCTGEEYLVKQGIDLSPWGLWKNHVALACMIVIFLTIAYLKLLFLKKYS

CC(C)n1c(=O)cc(N[C@@H](C)c2ccccc2)[nH]c1=O [mavacamten, (S)-3-Isopropyl-6-((1-phenylethyl)amino)pyrimidine-2,4(1H,3H)-dione]
inhibition of OATPs [1]: does not inhibit | QTc interval (HCM patients): does not suggest clinically relevant increases in the QTc interval | metabolized through CYP2C19 (CYP2C19): 74% | solubility (Solubility; DMSO and NMP): freely soluble | solubility (Solubility; methanol and ethanol): sparingly soluble | solubility (Solubility; water and aqueous buffers at pH 2-10): practically insoluble | genotoxicity (rat): not genotoxic | fraction unbound (Plasma protein binding): 0.02 to 0.03 | inhibition of BCRP (BCRP): does not inhibit | Change from baseline pVO2 ≥1.5 mL/kg/min and decreased NYHA ([2]; 30 Weeks, N = 123): 41 (33%) | Change from baseline pVO2 ≥3 mL/kg/min and NYHA not increased ([2]; 30 Weeks, N = 123): 29 (23%) | Total responders (primary endpoint) ([2]; 30 Weeks, N = 123): 45 (37%) | Change from baseline pVO2 ≥1.5 mL/kg/min and decreased NYHA, Difference (95% CI) ([2]; 30 Weeks, vs Placebo): 19% (9, 30) | Change from baseline pVO2 ≥3 mL/kg/min and NYHA not increased, Difference (95% CI) ([2]; 30 Weeks, vs Placebo): 13% (3, 22) | Total responders, Difference (95% CI) ([2]; 30 Weeks, vs Placebo): 19% (9, 30) | Number (%) with NYHA Class improved ≥1 ([2]; Baseline to Week 30, N = 123): 80 (65%) | Post-Exercise LVOT gradient, mean (SD) change ([2]; Baseline to Week 30, N = 123): −47 (40) mmHg | pVO2, mean (SD) change ([2]; Baseline to Week 30, N = 123): 1.4 (3.1) mL/kg/min | NYHA Class improved ≥1, Difference (95% CI) [2, 5]: 34% (22%, 45%) | Post-Exercise LVOT gradient, Difference (95% CI) [2, 5]: −35 (−43, −28) mmHg | pVO2, Difference (95% CI) [2, 5]: 1.4 (0.6, 2.1) mL/kg/min | Syncope leading to discontinuation, patients ([2]; EXPLORER-HCM): 0.8% | patients in whom reductions in LVEF to <50% were asymptomatic ([2]; EXPLORER-HCM): 3 of the 7 | patients who temporarily interrupted their dose due to LVEF<50% ([2]; EXPLORER-HCM): Three | patients with reversible reductions in LVEF to <50% while on treatment, n (%) ([2]; EXPLORER-HCM): 7 (6%) | Adverse reaction: dizziness, patients ([2]; EXPLORER-HCM, 2.5-15 mg daily): 27% | Adverse reaction: syncope, patients ([2]; EXPLORER-HCM, 2.5-15 mg daily): 6% | mean (SD) change from baseline in Valsalva LVOT gradient ([2]; Week 30): −49 (34) mmHg | mean (SD) change from baseline in resting LVOT gradient ([2]; Week 30): −39 (29) mmHg | proportion of patients who met the primary endpoint ([2]; Week 30): 37% | secondary endpoints (post-exercise LVOT peak gradient, pVO2, NYHA class, KCCQ-23 CSS, HCMSQ SoB) ([2]; Week 30): greater improvement compared to the placebo group across all secondary endpoints | HCMSQ SoB, Difference, LS Mean (95% CI) ([2]; Week 30, vs Placebo): −2 (−2, −1) | KCCQ-23 CSS, Difference, LS Mean (95% CI) ([2]; Week 30, vs Placebo): 9 (5, 13) | reduction in NT-proBNP greater than for placebo ([2]; Week 30 compared with baseline): 80% | LVEF following interruption in patients with LVEF <50% ([2]; all 7 patients): LVEF recovered | Subgroup analysis of the primary composite functional endpoint ([2]; all subgroups analyzed (FIG. 17)): consistently favored MAVACAMTEN across all subgroups analyzed | benefit in patients on background beta blocker therapy compared to those who were not ([2]; attenuated improvement in pVO2): smaller | KCCQ-23 PL, Change from Baseline to Week 30, Mean (SD) ([2]; in vivo): 15 (17) | KCCQ-23 TSS, Change from Baseline to Week 30, Mean (SD) ([2]; in vivo): 12 (15) | KCCQ-23 CSS, Change from Baseline to Week 30, Mean (SD) ([2]; n = 99): 14 (14) | HCMSQ SoB, Change from Baseline to Week 30, Mean (SD) ([2]; n = 108): −3 (3) | mean (SD) absolute change from baseline in LVEF ([2]; over the 30-week treatment period): −4% (8) | exposure (AUC) increase [3]: up to 220% | Other findings (dogs): QTc prolongation | Plasma exposure (AUC) at the NOAEL vs human exposure (AUC) at the MRHD (dogs): 0.3 times | Noted toxicities (dogs; 0.06 to 10 mg/kg/day orally): echocardiographic findings, reduction in systolic function, cardiac dilation, and death | Other findings (rats): cardiac osseous metaplasia | Plasma exposure (AUC) at the NOAEL vs human exposure (AUC) at the MRHD (rats): 0.1 times | heart weights (rats): increased heart weights | Noted toxicities (rats; 0.06 to 10 mg/kg/day orally): echocardiographic findings, reduction in systolic function, cardiac dilation, and death | mavacamten AUCinf increase (CYP3A4): 15% | mavacamten Cmax increase (CYP3A4): 52% | LVOT gradients, symptoms, exercise performance and health status [4]: effective in reducing LVOT gradients and improving symptoms, exercise performance and health status | inhibition of CYP2C8 (CYP2C8): does not inhibit
